Data reported in US20240368104A1, “Novel Dialkoxynaphtho[2,3-C]Furan-1(3H)-One Derivatives and Pharmaceutical Composition For Preventing or Treating Respiratory Disease or SARS-COV-2 Infection Disease, Comprising Same” (priority 2021, published 2024).
Like-named read-outs stand apart in the source and are kept apart here.

Tests used:
[1] = tested on: SFTS virus (KADGH; NCCP43261); test: microbe, parasite or virus in culture; assay type: cell-based, severe fever with thrombocytopenia syndrome virus; conditions: Severe fever with thrombocytopenia syndrome virus, Vero, 24 h, read-out: SFTSV inhibition (IC50, μM)
[2] = tested on: Balb/c mouse asthma model; test: Balb/c mouse asthma model (ovalbumin), BALF IgE, IL-4, IL-5 and inflammatory cells; assay type: in vivo, Balb/c mice; conditions: Example 73 10 mg/kg oral, dexamethasone 1 mg/kg intraperitoneal
Method: In detail, five-week-old Balb/c mice were purchased and acclimated for one week, after which the mice were sensitized systemically by intraperitoneal injection with 0.1% ovalbumin (OVA 1 mg/mL, Al(OH)3 20 mg/mL) at 100 μl/mouse on days 0 and 14 from a week after the acclimation. From a week (day 21) after a final systemic sensitization, the compound of Example 73 was orally administered everyday at 10 mg/kg to mice for ten days, and dexamethasone was intraperitoneally administered at 1 mg/kg as a positive control group. In one hour later, 0.2% ovalbumin solution was sprayed with a nebulizer (PARIBoy SX, GmbH, Germany) so as to be inhaled for one hour. In five hours after the final sensitization (day 30), an autopsy was performed, and 1 mL of phosphate buffer solution was flowed through a tracheotomy to collect a bronchoalveolar lavage fluid (BALF). The collected BALF was centrifuged at 3000 rpm for ten minutes, and the supernatant was used to measure bioactive materials (IL-4, IL-5), and pellets were used to measure the number of inflammatory cells. In addition, an IgE concentration in the isolated BALF was measured using IgE enzyme-linked immunosorbent assay (ELISA, Komabiotech), and IL-4 and IL-5 were measured using their respective enzyme-linked immunosorbent assay (ELISA, IL-4: Enzo #ADI-900-043, IL-5: R&D system #M5000).
The results are shown in Table 8 and FIG. 22, and each secretion inhibitory activity was calculated in the same manner as in [Equation 2] of Experimental Example 4.
In addition, the BALF pellets were re-dissolved by adding 0.5 mL of phosphate buffer solution, and then 0.1 mL for each thereof was added to a 96-well plate and centrifuged at 800 rpm for five minutes to attach cells to the bottom (three wells per sample). Then, the cells were stained with Diff Quik staining solution (Sysmex) and the number of cells was measured with […].
The results were shown in FIG. 21, the SPSS program was used for statistical processing, the Levene test was performed for equal-variance test, and the significance test was performed through one-way ANOVA.

[3] = in vitro; conditions: African green monkey
[4] = tested on: SARS-COV-2; test: microbe, parasite or virus in culture; assay type: cell-based; parameters: SI (Selectivity Index, CC50/IC50): unit not given here; conditions: for SI (Selectivity Index, CC50/IC50): SARS-COV-2, values >50 assumed to be 50; for IC50: read-out: SARS-COV-2 inhibition (IC50)
[5] = tested on: IL-5 expression in Th2 cells; test: Inhibition of IL-5 expression in Th2 cells (ELISA); assay type: cell-based, Balb/C mice; conditions: Splenocyte, read-out: Inhibitory ability against IL-5 expression (%)
Method: Specifically, after spleens were collected from Balb/C mice, CD4+ T cells were isolated therefrom and were seeded at 1-2×10^6 per well into a 48-well tissue culture plate coated with anti-CD3 (5 ug/ml) and anti-CD28 (1 ug/ml). At this time, the culture medium was incubated with IL-2 (20 ng/ml), IL-4 (100 ng/ml), anti-IFNγ (10 ug/ml), anti-IL12 (10 ug/ml), and a derivative of 1 nM for two days, transferred to a new tissue culture plate, and further cultured for three days to induce differentiation into Th2 cells. After replacing with a new medium containing anti-IFNγ (10 ug/ml), anti-IL12 (10 ug/ml) and a derivative of 1 nM, polarization of Th2 cells was induced using PMA and A23187. After two days of culture, the cells were centrifuged and the culture medium was taken to perform IL-5 ELISA. IL-5 ELISA was performed according to the test method of the kit manufacturer.

[6] = Severe acute respiratory syndrome coronavirus 2, Vero cells, 24 hours infection
[7] = Th2 cells from mouse splenocytes, compound 1 nM

Row | Structure (SMILES) | CC50 [3] | SI (Selectivity Index, CC50/IC50) [4] | IC50 [4, 6] | inhibition at 0.001 µM [5, 7] | further results
1 | NC(=O)c1nc(F)c[nH]c1=O [Favipiravir] | – | – | – | – | IC50 [1]: 278 µM
2 | C[C@@H]1C[C@H]2[C@@H]3CCC4=CC(=O)C=C[C@]4(C)[C@@]3(F)[C@@H](O)C[C@]2(C)[C@@]1(O)C(=O)CO [Dexamethasone, dexamethasone, reference compound] | – | – | – | – | BALF IL-4 Secretion inhibitory ability % [2]: (102.7%); BALF IL-5 Secretion inhibitory ability % [2]: (50.0%); BALF IgE Secretion inhibitory ability % [2]: (93.0%); BALF IL-4 pg/ml ([2]; Mean ± S.D., n = 5, ten days): 32.9 ± 4.534 ^## pg/ml; BALF IL-5 pg/ml ([2]; Mean ± S.D., n = 5, ten days): 15.6 ± 8.07 pg/mL; BALF IgE ng/ml ([2]; Mean ± S.D., n = 5, ten days): 1.3 ± 0.536 ^## ng/ml
3 | COc1cc2cc3c(c(-c4cnc(N[C@H]5CC[C@H](O)CC5)nc4)c2cc1OC)C(=O)OC3 [Example 47, 9-(2-(((1r,4r)-4-hydroxycyclohexyl)amino)pyrimidin-5-yl)-6,7-dimethoxynaptho[2,3-c]furan-1(3H)-one] | > 50 µM | 1.00 | > 50 µM | 61% | –
4 | COc1cc2cc3c(c(N[C@H]4CCc5c(cccc5OC)C4)c2cc1OC)C(=O)OC3 [Example 1, (S)-6,7-dimethoxy-9-((5-methoxy-1,2,3,4-tetrahydronaphthalen-2-yl)amino)naphtho[2,3-c]furan-1(3H)-one] | > 50 µM | 1.00 | > 50 µM | 61.9% | –
5 | COCCN(C)c1ncc(-c2c3c(cc4cc(OC)c(OC)cc24)COC3=O)cn1 [Example 18, 6,7-dimethoxy-9-(2-((2-methoxyethyl)(methyl)amino)pyrimidin-5-yl)naphtho[2,3-c]furan-1(3H)-one] | > 50 µM | 99.07 | 0.5 µM | 72.3% | –
6 | CCC(C)Oc1ncc(-c2c3c(cc4cc(OC)c(OC)cc24)COC3=O)cn1 (stereo not shown) [Example 25, 9-(2-(sec-butoxy)pyrimidin-5-yl)-6,7-dimethoxynaphtho[2,3-c]furan-1(3H)-one] | > 50 µM | 1.00 | > 50 µM | 56.8% | –
7 | COc1cc2cc3c(c(-c4cnc(N[C@H]5CCc6c(cccc6OC)C5)nc4)c2cc1OC)C(=O)OC3 [Example 22, (S)-6,7-dimethoxy-9-(2-((5-methoxy-1,2,3,4-tetrahydronaphthalen-2-yl)amino)pyrimidin-5-yl)naphtho[2,3-c]furan-1(3H)-one] | > 50 µM | 10.64 | 4.7 µM | 59.9% | –
8 | COc1cc2cc3c(c(-c4cnc(O[C@H]5CN6CCC5CC6)nc4)c2cc1OC)C(=O)OC3 [Example 17, (R)-6,7-dimethoxy-9-(2-(quinuclidin-3-yloxy)pyrimidin-5-yl)naphtho[2,3-c]furan-1(3H)-one] | > 50 µM | 1.59 | – | – | IC50 ([4]; Severe acute respiratory syndrome coronavirus 2, Vero, 24 h): 31.4 µM; inhibition at 0.001 µM ([5]; Mus musculus): 55.2%
9 | CCCOCCNc1ncc(-c2c3c(cc4cc(OC)c(OC)cc24)COC3=O)cn1 [Example 37, 6,7-dimethoxy-9-(2-((2-propoxyethyl)amino)pyrimidin-5-yl)naphtho[2,3-c]furan-1(3H)-one] | > 50 µM | 1.00 | > 50 µM | 56% | –
10 | CCCOCCN(CCC)c1ncc(-c2c3c(cc4cc(OC)c(OC)cc24)COC3=O)cn1 [Example 42, 6,7-dimethoxy-9-(2-((2-propoxyethyl)(propyl)amino)pyrimidin-5-yl)naphtho[2,3-c]furan-1(3H)-one] | > 50 µM | 1.00 | > 50 µM | 64.8% | –
11 | COc1cc2cc3c(c(-c4cnc(N5CCC[C@H]5C(=O)N5C[C@@H](C)O[C@@H](C)C5)nc4)c2cc1OC)C(=O)OC3 [Example 24, 9-(2-((S)-2-((2S,6R)-2,6-dimethylmorpholin-4-carbonyl)pyrrolidin-1-yl)pyrimidin-5-yl)-6,7-dimethoxynaphtho[2,3-c]furan-1(3H)-one] | > 50 µM | 1.00 | > 50 µM | 72.3% | –
12 | COc1cc2cc3c(c(-c4cnc(N(C)C(C)C)nc4)c2cc1OC)C(=O)OC3 [Example 23, 9-(2-(isopropyl(methyl)amino)pyrimidin-5-yl)-6,7-dimethoxynaphtho[2,3-c]furan-1(3H)-one] | > 50 µM | 61.34 | 0.08 µM | 68.2% | –
13 | COc1cc2cc3c(c(-c4cnc5ccccc5c4)c2cc1OC)C(=O)OC3 [Example 46, 6,7-dimethoxy-9-(quinolin-3-yl)naphtho[2,3-c]furan-1(3H)-one] | > 50 µM | 512.00 | 0.1 µM | 50.4% | –
14 | CCOC(=O)[C@@H]1CCCN1c1ncc(-c2c3c(cc4cc(OC)c(OC)cc24)COC3=O)cn1 [Example 19, (S)ethyl 1-(5-(6,7-dimethoxy-3-oxo-1,3-dihydronaphtho[2,3-c]furan-4-yl)pyrimidin-2-yl)pyrrolidin-2-carboxylate] | > 50 µM | 1.60 | 31.3 µM | 92.3% | –
15 | COc1cc2cc3c(c(-c4cnc(Oc5ccc6c(c5)OCO6)nc4)c2cc1OC)C(=O)OC3 [Example 20, 9-(2-(benzo[d][1,3]dioxol-5-yloxy)pyrimidin-5-yl)-6,7-dimethoxynaphtho[2,3-c]furan-1(3H)-one] | > 50 µM | 1.00 | > 50 µM | 40.8% | –
16 | COc1cc2cc3c(c(-c4cnc(OCCN5CCOCC5)nc4)c2cc1OC)C(=O)OC3 [Example 13, 6,7-dimethoxy-9-(2-(2-morpholinoethoxy)pyrimidin-5-yl)naphtho[2,3-c]furan-1(3H)-one] | > 50 µM | 1.00 | > 50 µM | 67.7% | –
17 | COc1cc2cc3c(c(-c4cnc(NCCCn5ccnc5)nc4)c2cc1OC)C(=O)OC3 [Example 16, 9-(2-((3-(1H-imidazol-1-yl)propyl)amino)pyrimidin-5-yl)-6,7-dimethoxynaphtho[2,3-c]furan-1(3H)-one] | > 50 µM | 1.6 | 31.2 µM | 70.8% | –
